Experimental data from patent US6284910A, “Farnesyl pyrophosphate analogs” (University of Kentucky Research Foundation, priority 1999, dated 2001).
pIC50: −log10 of the molar value. Entries after “also recorded” stand apart in the source; their conditions may differ.

What was measured:
[1] = biological target: T1, FTase (Rattus norvegicus, UniProt Q02293+Q04631); experiment: Continuous fluorescence assay: transfer of FPP and analogs to N-dansyl-GCVLS by FTase; assay type: biochemical; settings: excitation 340 nm, 505 nm
From the text: FIG. 8. Progress Curves for Transfer of FPP and Analog Pyrophosphates to Dansyl-GCVLS by FTase. The reaction is monitored for fluorescence intensity at 505 nm with excitation at 340 nm. (a) FPP, (b) AGPP, (c) 8-(pentafluoroaniline)geranyl pyrophosphate, (d) blank.
Continuous Fluorescence Assay for Analog Transfer: An important requirement for these studies is the development of a rapid technique for evaluating whether FPP analogs that are efficiently and appropriately transferred to target substrates by FTase. The analogs were evaluated for their ability to be transferred by FTase to the pentapeptide N-dansyl-GCVLS in a continuous fluorescence assay. (See references 78, 79, infra). There is a time dependent increase in the fluorescence of the dansyl group due to the local increase in hydrophobicity as the adjacent cysteine residue is isoprenylated. […] (FIG. 8).

[2] = biological target: T1, FTase; experiment: FTase-catalyzed transfer of labeled FPP analogs to p21^H-ras (substrate assay); assay type: biochemical; design: H-Ras is only the protein substrate; settings: for transfer to p21^H-ras by FTase, in words: in vitro
Protocol: FIG. 4. Transfer of Anilinogeranyl from [^3 H]AGPP to p21^Ha-ras by Farnesyltransferase. (A) Each reaction contained 1 μM [^3 H]AGPP (37,400 dpm/pmol) and 10 ng of recombinant FTase in the absence (triangles) or presence (circles) of 5 μM p21^Ha-ras Duplicate samples were incubated for the indicated times at 37° C., and ethanol-HCl precipitated radioactivity was measures as described under "Experimental Procedures". […] The gel was treated with Amplify solution (Amersham), dried, and exposed to Kodak X-OMAT AR film for 2 days at -70° C. The migration of molecular weight markers placed in a adjacent lane is shown. (B) The AGPP substrate saturation curve for FTase was determined by varying the amount of [^3 H]AGPP in the standard reaction described above. Assays were carried out in duplicate for 30 min at 37° C., and the ethanol-HCl precipitable radioactivity measured. The data is representative of three independent experiments.
FIG. 5. […] Farnesyltransferase (10 ng) was incubated in a final volume of 25 μl in the presence of 1.0 μM [^3 H]AGPP or [^3 H]FPP and 5 μM wild-type p21^Ha-ras. After incubation for 30 min at 37° C., the amount of [^3 H]prenyl transferred to p21^Ha-ras was determined as described under "Experimental Procedures". Each value is the average of duplicate incubations and is representative of five separate experiments.
Assay for Farnesyltransferase Activity--Farnesyltransferase activity was assayed by measuring the amount of [^3 H]farnesyl or [^3 H]anilinogeranyl transferred from [^3 H]FPP or [^3 H]AGPP to recombinant p21^H-ras, as described previously (31). Unless otherwise stated, each reaction mixture contained the following components in a final volume of 25 μl: 50 mM Tris (pH 7.4), 20 mM KCl, 0.2% octyl β-glucopyranoside, 1 mM dithiothreitol, 10-20 ng recombinant FTase, 5 μM p21^Ha-ras, 3 mM MgCl2, 50 μM ZnCl2, and 0.6 μM [^3 H]FPP (33,000 dpm/pmol; American Radiochemical Co.) or 0.1-5 μM [^3 H]AGPP (37,400 dpm/pmol). Following incubation for the indicated times at 37° C., the amount of [^3 H]prenyl transferred was measured by ethanol-HCl precipitation and filtration on glass fiber filters with modification as previously described (19). A blank value was determined in parallel incubation mixtures containing no enzyme. This blank value was subtracted from each reaction before calculating pmol [^3 H]prenyl transferred.
The observed inhibition kinetics could be a manifestation of the ability of AGPP to act as an alternative substrate for FTase. To evaluate the potential of AGPP to serve as a substrate of FTase, [^3 H]-AGPP was prepared by a similar route as described above, incorporating tritium with a specific activity of 17 Ci/mmol (synthesis to be reported elsewhere). […] The incorporated radioactivity was detected as a band of the expected molecular weight of farnesylated p21^H-ras on SDS-polyacrylamide gels (FIG. 4A, inset). […] The concentration of [^3 H]AGPP that gave half-maximal reaction velocity was approximately 0.5 μM (FIG. 4B).
FIG. 5 depicts transfer of unnatural anilinogeranyl lipid from [^3 H]AGPP and transfer of farnesyl lipid from [^3 H]FPP to H-Ras by FTase. Farnesyltransferase (10 ng) was incubated in a final volume of 25 μl in the presence of 1.0 μM [^3 H]AGPP or [^3 H]FPP and 5 μM wild-type H-Ras. After incubation for 30 min. at 37° C., the amount of [^3 H]prenyl transferred to H-Ras was determined by ethanol-HCl precipitation and scintillation counting. Each value is the average of duplicate incubations and is representative of five separate experiments.

[3] = biological target: T2, recombinant GGTase I (Rattus norvegicus, UniProt P53610+Q04631); experiment: Inhibition of CAAX GGTase I transfer of [^3 H]geranylgeranyl from [^3 H]GGPP to H-Ras-CVLL; assay type: biochemical
T2 construct: 6xHis (N); made in house; host or cells: Sf9 insect cells (baculovirus)
Protocol: The assay mixtures contained (in a final volume of 25 μl) various components as described in "Experimental Procedures". After incubation for 15 min at 37° C., the amount of [^3 H]prenyl group transferred to the appropriate protein substrate [H-Ras (CVLS) for FTase and H-Ras (CVLL) for CAAX GGTase] was measured by precipitation with ethanol-HCl. The assays contained 10 ng recombinant rat FTase, 5 μM H-Ras, and 0.6 μM [^3 H]FPP (33,000 dpm/pmol) or 100 ng recombinant rat CAAX GGTase, 5 μM H-Ras CVLL, and 1 μM [^3 H]GGPP (33,000 dpm/pmol) and the indicated concentration of unlabeled AGPP. […] Each value is the average of duplicate incubations and is representative of two separate experiments.
Unless otherwise stated, each reaction contained the following components in a final volume of 25 μl: 50 mM Tris-HCl (pH 7.4), 5 mM dithiothreitol, 20 μM Zwittergent (3-14), 1 μM [^3 H]GGPP (33,000 dpm/pmol; American Radiochemical Co.), 5 μM p21^H-ras CVLL, 5 μM ZnCl2, 5 mM MgCl2, 100 ng recombinant CAAX GGTase-1, and the indicated amount of unlabeled AGPP. Following incubation at 37° C. for 15 min, the amount of [^3 H]geranylgeranyl transferred was measured by ethanol-HCl precipitation followed by filtration on glass fiber filters. A blank value was determined in parallel incubation mixtures containing no enzyme and was subtracted from each reaction.
The assays contained 10 ng recombinant rat FTase, 5 μM H-Ras, and 0.6 μM [^3 H]FPP (33,000 dpm/pmol) or 100 ng recombinant rat CAAX GGTase, 5 μM H-Ras CVLL, and 1 μM [^3 H]GGPP (33,000 dpm/pmol) and the indicated concentration of unlabeled AGPP.

[4] = tested on: Xenopus laevis oocytes; experiment: Xenopus laevis oocyte maturation assay (GVBD) with oncogenic H-Ras in mevinolin-treated oocytes; assay type: cell-based
From the text: Recently, a novel methodology involving the microinjection of known amounts of Ras into Xenopus oocytes has been described (see references 24, 45, infra), thereby permitting a quantitative structure-function analysis of H-Ras farnesyl-group for signal transduction in vivo. The approach makes use of enzymatic methods to attach structurally related farnesyl analogs onto the prenylation site of H-Ras combined with microinjection procedures to study their in vivo function. Oocytes are naturally arrested at the G2-M boundary of the first meiotic cell division. (See reference 80, infra). When microinjected with oncogenic H-Ras, oocytes reenter the cell cycle, which is monitored by germinal vesicle breakdown (GVBD) by the appearance of a white spot in the animal hemisphere. GVBD is accompanied by activation of the mitogen-activated protein kinase (MAPK) cascade. (See 81, 82, infra). […] (See references 24, 45, infra). These biochemical effects are strictly dependent on in vivo farnesylation of the injected H-Ras protein since mutation of the CaaX prenylation motif, blocking isoprenoid biosynthesis, and inhibition of FTase in oocytes all suppress these activities. (See references 83-85, infra). Thus, the system provides a method to study the in vivo role of prenylation by analyzing the ability of FPP analogues to rescue H-Ras biological functions in isoprenoid-depleted oocytes. […] Oocytes were isolated from X. laevis females and allowed to recover overnight. (See 24, 45, infra).

C/C(=C\COP(=O)(O)OP(=O)(O)O)CC/C=C(\C)CNc1ccccc1 [AGPP, (E,E)-8-Aniline-3,7-dimethyl-2,6-octadiene pyrophosphate]
time-dependent increase in dansyl fluorescence / transfer to dansyl peptide, in words [1]: transferred efficiently
time-dependent increase in dansyl fluorescence / transfer to dansyl peptide, in words ([1]; listed as 1): Time-dependent increases in the fluorescence of the dansyl group
transfer to p21^H-ras by FTase, in words ([2]; 37° C.): transferred efficiently
transfer to p21^H-ras by FTase, in words ([2]; 37° C., listed as [^3 H]-AGPP): kinetics of transfer are identical to those of FPP
transfer to p21^H-ras by FTase, in words ([2]; 37° C., listed as [^3 H]AGPP): time dependent fashion; also recorded: transferred appropriately to p21^H-Ras by FTase
transfer to p21^H-ras lacking the CVLS motif ([2]; recombinant p21^H-ras with CVLS removed): eliminated the incorporation of tritium into the protein
concentration that gave half-maximal reaction velocity ([2]; transfer to p21^H-ras, 37° C., 30 min): approximately 0.5 μM
pIC50 ([3]; 1 μM [^3 H]GGPP, 5 μM H-Ras CVLL, 37° C., 15 min): 4.51
GGTase I activity remaining ([3]; AGPP concentrations of greater than 100 μM, 15 min): approximately 20%
selectivity: better inhibitor of FTase than GGTase I ([3]; FTase vs GGTase I): 50 fold
additional time necessary to achieve 50% maturation versus FPP ([4]; H-Ras and AGPP, mevinolin-treated oocytes, longer than for FPP): 2 to 4 h
rescue of oncogenic H-Ras biological activity (oocyte maturation) ([4]; co-microinjected with oncogenic H-Ras, 50 μM mevinolin-treated oocytes): rescues the biological activity of oncogenic H-Ras in isoprenoid depleted oocytes with delayed maturation kinetics relative to FPP; also recorded: rescues the ability of H-Ras to induce oocyte maturation in mevinolin-treated cells
effect when given without H-Ras ([4]; compound alone): neither FPP nor AGPP alone displayed any biological effect
